In brackets after ≈: the same amount, converted by molar mass. Read-outs that look alike come from different tables or passages of the source.
How the values were obtained:
in vivo = conditions: Artemia salina (brine shrimp), in vivo
Method: (§1) The brine shrimp lethality bioassay on Artemia salina was performed to predict the toxicity of the compounds. The test was conducted using 24-well plate as described previously according to standard protocols (Solis et al. [1993]; Meyer et al. [1982]). The wells containing FSW-DMSO (v/v 1:1000) served as the negative controls. Adriamycin was used as a positive control. There were three replicate wells per concentration, and each bioassay experiment had three replicates using three different batches of brine shrimp.

[1] = system: cyprids of barnacle B. amphitrite; experiment: Anti-larval settlement bioassay (antifouling activity and larval toxicity); assay type: in vivo; conditions: for LC50/EC50 ratio (therapeutic ratio): B. amphitrite cyprids, ratio >15 considered non-toxic; for EC50: read-out: EC50 (larval settlement inhibition)
Method: (§2) The newly released nauplii were screened with the aperture of 90 μm. The newly released nauplii were raised in filtered seawater (FSW) at 28 °C with mild aeration and fed with Chaetoceros gracilis Schutt at 1 × 10^6 cells ml^−1. The nauplius larvae transformed into cyprids (ready to attach and metamorphose) after 3.5 days. Newly transformed cyprids were kept in filtered seawater at 4 °C overnight before being used in the anti-larval settlement bioassay.
(§3) The antifouling activity was evaluated as larval settlement inhibition against the cyprids of barnacle B. amphitrite using 24-well polystyrene plates (Nunc, Naperville, CA, USA). Each compound was dissolved in a stock solution of DMSO with the concentration of 50 mg ml^−1, and then diluted 1000 times with FSW to 50 μg ml^−1. The compound was further transferred into FSW to make up the following test solution with the concentrations ranging from 25 to 0.50 μg ml^−1. One millilitre of the test solution and 16–20 larvae were allocated to each well of the 24-well plate. Each concentration had three replicate wells. The plates were cultivated in darkness for 48 h at 28 °C. The effects of the test compounds against the larvae settlement were determined by examining the plates under a dissecting microscope to check for (1) settled larvae (attached and metamorphosed), (2) swimming larvae, as well as (3) any possible toxic effects of the treatments (dead and paralyzed). The number of the settled larvae was expressed as a percentage of the total number of larvae per well. Each compound was tested by triplicate experiments using three different batches of larvae.
(§4) The EC50 and LC50 values of each compound were calculated according to the records of anti-larval settlement experiments. […] Then a concentration–response curve was plotted and a tread line was set up.

[2] = system: cyprids of barnacle B. amphitrite; parameters: method as in Jacobson and Willingham [2000]; conditions: concentration used for positive control; ref Jacobson and Willingham [2000]; cited from earlier work
[3] = Anti-larval settlement bioassay (antifouling activity and larval toxicity); assay type: in vivo; conditions: Balanus (Amphibalanus) amphitrite (barnacle cyprid larvae), in vivo, cyprids of B. amphitrite, 48 h at 28 °C, concentration where 50% of larvae were dead; for LC50 at 48 h: other: larvae immersed in test solution
Method: as §2, §3, §4

[4] = system: brine shrimps Artemia salina; experiment: in vivo; conditions: read-out: LC50 (brine shrimp lethality); Artemia salina
Method: as §1

[5] = cyprids of B. amphitrite, 48 h at 28 °C, concentration where 50% of larvae were inhibited to settle vs negative control
[6] = Amphibalanus amphitrite, 48 h, cyprids of B. amphitrite, 48 h at 28 °C, concentration where 50% of larvae were inhibited to settle vs negative control
[7] = LC50 (brine shrimp lethality), Artemia salina
[8] = Amphibalanus amphitrite, cyprids of B. amphitrite, 48 h at 28 °C, concentration where 50% of larvae were inhibited to settle vs negative control

COc1cccc2c1C(=O)c1c(O)c3c(c(O)c1C2=O)C[C@@](O)(C(=O)CO)C[C@@H]3O[C@H]1C[C@H](N)[C@H](O)[C@H](C)O1 [Adriamycin, reference compound]
LC50 (in vivo): 12 µM

CCCCCCCCn1sc(Cl)c(Cl)c1=O [Sea-Nine 211™, reference compound]
LC50/EC50 ratio (therapeutic ratio) [1]: 20.3 | LC50 ([1]; cyprids of B. amphitrite, 48 h at 28 °C, concentration where 50% of larvae were dead): 88.7 µM | EC50 [1, 5]: 4.36 µM | EC50 value against B. amphitrite [2]: 1.23 µg/mL (≈ 4.36 µM)

Cc1cc(O)cc(Oc2cc(C)cc(O)c2)c1 [compound 1, Diorcinol]
LC50 at 48 h [3]: > 217 µM | EC50 [1, 6]: 32.6 µM | LC50/EC50 ratio (therapeutic ratio) [1]: >6.67 | LC50 (in vivo; [7]): 126 µM

Cc1cc(O)cc(Oc2cc(C)cc(O)c2O)c1 [compound 2, Cordyol C]
LC50 at 48 h [3]: > 203 µM | EC50 [1, 6]: 57.3 µM | LC50/EC50 ratio (therapeutic ratio) [1]: >3.54 | LC50 (in vivo; [7]): 126 µM

COC(=O)c1c(C)cc(Oc2cc(C)cc(O)c2)cc1O [compound 3, 4-Methoxyacyl-diorcinol]
LC50 at 48 h [3]: > 174 µM | EC50 [1, 6]: < 10 µM | EC50 [1, 5]: 7.43 µM | LC50 (in vivo; [7]): ≥ 34.7 µM | LC50 [4]: 34.7 µM

COc1cc(C)cc(Oc2cc(C)cc(O)c2)c1 [compound 4, Cordyol E]
LC50 at 48 h [3]: > 205 µM | EC50 [1, 6]: 31 µM | LC50/EC50 ratio (therapeutic ratio) [1]: >6.61 | LC50 (in vivo; [7]): 41 µM

COc1cc(C)cc(Oc2cc(C)cc(OC)c2O)c1O [compound 5, 3,3′-O-dimethylviolaceol-I]
LC50 at 48 h [3]: > 172 µM | EC50 [1, 6]: 18.4 µM | LC50/EC50 ratio (therapeutic ratio) [1]: >9.35 | LC50 (in vivo; [7]): 172 µM

COc1cc(C)cc(Oc2cc(C)cc(OC)c2OC)c1O [compound 6, Cordyol D]
LC50 at 48 h [3]: > 164 µM | EC50 [1, 6]: 18.2 µM | LC50/EC50 ratio (therapeutic ratio) [1]: >9.01 | LC50 (in vivo; [7]): 164 µM

Cc1cc(O)cc(Oc2cc(C)cc(OC(=O)c3ccccc3)c2)c1 [compound 10, 3-O-benzoyl-diorcinol]
LC50 at 48 h [3]: > 150 µM | EC50 [1, 6]: 12.6 µM | LC50/EC50 ratio (therapeutic ratio) [1]: >11.9 | LC50 (in vivo; [7]): > 150 µM

Cc1c(Br)c(O)c(Br)c(Oc2c(Br)c(C)c(Br)c(O)c2Br)c1Br [compound 13, 2,4,6,2′,4′,6′-Hexabromo-diorcinol]
LC50 [3]: 22 µM | EC50 [1, 8]: 0.71 µM | LC50 (in vivo): 35.6 µM

COC(=O)c1c(C)c(Br)c(Oc2c(Br)c(C)c(Br)c(O)c2Br)c(Br)c1O [compound 14, 2,6,2′,4′,6′-Pentabromo-4-methoxycarbonyl-diorcinol]
LC50 [3]: 29.3 µM | EC50 [1, 8]: 1.17 µM | LC50 (in vivo): > 73.3 µM

Cc1cc(O)cc(Oc2cc(C)cc(OC(=O)c3ccc(Br)cc3)c2)c1 [compound 15, 3-O-p-Bromobenzoyl-diorcinol]
LC50 at 48 h [3]: 60.5 µM | EC50 [1, 6]: 2.42 µM | LC50 (in vivo; [7]): > 121 µM

C/C(=C\[C@H](O)C[C@@H](C)CCCc1ccoc1)CCCc1ccoc1 [compound 22, Furospongin-1]
LC50 at 48 h [3]: 153 µM | EC50 [1, 6]: 6.05 µM | LC50/EC50 ratio (therapeutic ratio) [1]: 25.2 | inhibition of larval settlement in preliminary screening ([1]; B. amphitrite, at 25.0 μg ml^−1): completely inhibited | EC50 [1, 5]: 6.06 µM

C=CC(C)(C)c1[nH]c2c(CC=C(C)C)cc(CC=C(C)C)cc2c1C[C@@H]1NC(=O)[C@H](C)NC1=O [compound 44, Echinulin]
LC50 [3]: > 108 µM | EC50 ([1]; Amphibalanus amphitrite, 48 h): > 54.2 µM

CO[C@H]1[C@@H](O)CC/C(C)=C/[C@H]2C=C(C)[C@@H](C)[C@H]3[C@H](CC(C)C)NC(=O)[C@]32C(=O)C[C@@H]1O [compound 46, Aspochalasin K]
LC50 [3]: > 115 µM | EC50 [1, 8]: 17.3 µM | LC50/EC50 ratio (therapeutic ratio) [1]: >6.65

CC1=C[C@@H]2/C=C(\C)CC[C@H](O)[C@H](O)[C@@H](O)CC(=O)[C@]23C(=O)N[C@@H](CC(C)C)[C@@H]3[C@@H]1C [compound 47, Aspochalasin E]
LC50 [3]: > 119 µM | EC50 [1, 8]: 32.2 µM | LC50/EC50 ratio (therapeutic ratio) [1]: >3.70

— paper PMC5081312, “Antifouling phenyl ethers and other compounds from the invertebrates and their symbiotic fungi collected from the South China Sea” (AMB Express, 2016)
